Measurements published in PubChem BioAssay (NCI).
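In this assay, cells in 96-well plates receive the compound at five concentrations for 48 hours. Endpoints are linearly interpolated between the surrounding concentrations. Definition used: TGI = concentration required for complete inhibition of growth.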

What was measured:
Assay in all cases: NCI tumour cell line growth inhibition, 48 h
COLO 205 colon = tested on: COLO 205 colon
SK-MEL-28 melanoma = tested on: SK-MEL-28 melanoma
U251 CNS = tested on: U251 CNS
SN12K1 renal = tested on: SN12K1 renal
HCC-2998 colon = tested on: HCC-2998 colon
DMS 114 small cell lung = tested on: DMS 114 small cell lung
OVCAR-5 ovarian = tested on: OVCAR-5 ovarian
P388 leukemia = tested on: P388 leukemia
MOLT-4 leukemia = tested on: MOLT-4 leukemia
OVCAR-8 ovarian = tested on: OVCAR-8 ovarian
SF-268 CNS = tested on: SF-268 CNS
SF-539 CNS = tested on: SF-539 CNS
OVCAR-3 ovarian = tested on: OVCAR-3 ovarian
NCI-H522 lung = tested on: NCI-H522 lung
UACC-62 melanoma = tested on: UACC-62 melanoma
CAKI-1 renal = tested on: CAKI-1 renal
M19-MEL melanoma = tested on: M19-MEL melanoma
K-562 leukemia = tested on: K-562 leukemia
A549 NSCLC = tested on: A549 NSCLC
P388/ADR leukemia = tested on: P388/ADR leukemia
MALME-3M melanoma = tested on: MALME-3M melanoma
XF 498 CNS = tested on: XF 498 CNS
OVCAR-4 ovarian = tested on: OVCAR-4 ovarian
RPMI-8226 leukemia = tested on: RPMI-8226 leukemia
HOP-92 NSCLC = tested on: HOP-92 NSCLC
RXF 393 renal = tested on: RXF 393 renal
SN12C renal = tested on: SN12C renal
NCI/ADR-RES ovarian = tested on: NCI/ADR-RES ovarian
HOP-62 NSCLC = tested on: HOP-62 NSCLC
A498 renal = tested on: A498 renal
HT29 colon = tested on: HT29 colon
IGROV1 ovarian = tested on: IGROV1 ovarian
HOP-18 NSCLC = tested on: HOP-18 NSCLC
NCI-H23 lung = tested on: NCI-H23 lung
LOX IMVI melanoma = tested on: LOX IMVI melanoma
HCT-15 colon = tested on: HCT-15 colon
SK-MEL-2 melanoma = tested on: SK-MEL-2 melanoma
SK-OV-3 ovarian = tested on: SK-OV-3 ovarian
DMS 273 small cell lung = tested on: DMS 273 small cell lung
UO-31 renal = tested on: UO-31 renal
SK-MEL-5 melanoma = tested on: SK-MEL-5 melanoma
SNB-75 CNS = tested on: SNB-75 CNS
HCT-116 colon = tested on: HCT-116 colon
HL-60(TB) leukemia = tested on: HL-60(TB) leukemia
NCI-H460 lung = tested on: NCI-H460 lung
KM20L2 colon = tested on: KM20L2 colon
DLD-1 colon = tested on: DLD-1 colon
NCI-H226 lung = tested on: NCI-H226 lung
SF-295 CNS = tested on: SF-295 CNS
CCRF-CEM leukemia = tested on: CCRF-CEM leukemia
UACC-257 melanoma = tested on: UACC-257 melanoma
SNB-78 CNS = tested on: SNB-78 CNS
SNB-19 CNS = tested on: SNB-19 CNS
KM12 colon = tested on: KM12 colon
MCF7 breast = tested on: MCF7 breast
EKVX NSCLC = tested on: EKVX NSCLC
SW-620 colon = tested on: SW-620 colon

O=C(N[C@@H](c1ccccc1)[C@@H](O)C(=O)OCc1ccc2c(c1)OCO2)c1ccccc1
TGI (COLO 205 colon): > 100 µM
TGI (SK-MEL-28 melanoma): > 100 µM
TGI (U251 CNS): > 100 µM
TGI (SN12K1 renal): > 100 µM
TGI (HCC-2998 colon): > 100 µM
TGI (DMS 114 small cell lung): > 100 µM
TGI (OVCAR-5 ovarian): > 31.6 µM
TGI (P388 leukemia): > 100 µM
TGI (MOLT-4 leukemia): > 100 µM
TGI (OVCAR-8 ovarian): > 100 µM
TGI (SF-268 CNS): > 100 µM
TGI (SF-539 CNS): > 100 µM
TGI (OVCAR-3 ovarian): > 100 µM
TGI (NCI-H522 lung): > 100 µM
TGI (UACC-62 melanoma): > 100 µM
TGI (CAKI-1 renal): > 100 µM
TGI (M19-MEL melanoma): > 100 µM
TGI (K-562 leukemia): > 100 µM
TGI (A549 NSCLC): > 100 µM
TGI (P388/ADR leukemia): > 100 µM
TGI (MALME-3M melanoma): > 100 µM
TGI (XF 498 CNS): > 100 µM
TGI (OVCAR-4 ovarian): > 100 µM
TGI (RPMI-8226 leukemia): > 100 µM
TGI (HOP-92 NSCLC): > 100 µM
TGI (RXF 393 renal): > 100 µM
TGI (SN12C renal): > 100 µM
TGI (NCI/ADR-RES ovarian): > 100 µM
TGI (HOP-62 NSCLC): > 100 µM
TGI (A498 renal): > 100 µM
TGI (HT29 colon): > 100 µM
TGI (IGROV1 ovarian): > 100 µM
TGI (HOP-18 NSCLC): > 100 µM
TGI (NCI-H23 lung): > 100 µM
TGI (LOX IMVI melanoma): > 100 µM
TGI (HCT-15 colon): > 100 µM
TGI (SK-MEL-2 melanoma): > 100 µM
TGI (SK-OV-3 ovarian): > 100 µM
TGI (DMS 273 small cell lung): > 100 µM
TGI (UO-31 renal): > 100 µM
TGI (SK-MEL-5 melanoma): > 100 µM
TGI (SNB-75 CNS): > 100 µM
TGI (HCT-116 colon): > 100 µM
TGI (HL-60(TB) leukemia): > 100 µM
TGI (NCI-H460 lung): > 100 µM
TGI (KM20L2 colon): > 100 µM
TGI (DLD-1 colon): > 100 µM
TGI (NCI-H226 lung): > 100 µM
TGI (SF-295 CNS): > 100 µM
TGI (CCRF-CEM leukemia): > 100 µM
TGI (UACC-257 melanoma): > 100 µM
TGI (SNB-78 CNS): > 100 µM
TGI (SNB-19 CNS): > 100 µM
TGI (KM12 colon): > 100 µM
TGI (MCF7 breast): > 100 µM
TGI (EKVX NSCLC): > 100 µM
TGI (SW-620 colon): > 100 µM
